Measured values reported in article PMC9332470, “Production and Selection of Antibody–Antigen Pairs for the Development of Immunoenzyme Assay and Lateral Flow Immunoassay Methods for Carbofuran and Its Analogues” (Biosensors, 2022).
In brackets after ≈: the same amount, converted by molar mass.

Legend:
mAb 13C8 [1] = assay: indirect competitive ELISA (icELISA) with mAb 13C8; type: binding, BALB/c mice; details: for IC50 (ELISA): optimized ELISA, mAb 13C8 0.03 μg/mL, coating antigen 0.1 μg/mL, given as MDA-BSA and MDA-OVA, unit from text
Method: (§1) Microplates were coated with coating antigens. Different concentrations of the standard (50 µL) and the mAb (50 µL) were added to each well, and the plates were incubated for 20 min at 37 °C. The plates were washed with PBS (0.01 M, containing 0.05% (v/v) Triton X-100), 100 μL of goat anti-mouse IgG-HRP conjugate solution was added to each well, and the plates were incubated for 20 min at 37 °C. After the plates were washed with PBS (0.01 M, containing 0.05% Triton X-100, v/v), 100 µL of TMB single-component substrate solution was added to each well, followed by incubation at 37 °C for 10 min. Finally, the reaction was terminated, and the absorbance at 450 nm was measured by a microplate reader.
(§2) Taking the logarithm of the carbofuran concentration as the abscissa and (B/B0)% as the ordinate, the standard curves for ELISA and QD-LFIA were obtained based on the Morgan–Mercer–Flodin (MMF) model, which were fitted by CurveExpert 1.4.0 software (https://www.curveexpert.net, accessed on 15 July 2022). For the ELISA method, B and B0 are the absorbance of the sample well and blank well, respectively. For the QD-LFIA method, B and B0 are the T/C (fluorescence intensity of the test line/fluorescence intensity of the control line) of the sample and blank control, respectively.
(§3) The inhibition ratio (I%) was calculated as (B0-B)/B0 × 100%. IC50 is the concentration of the carbofuran at an I% of 50%, and the limit of detection (LOD) was determined as the concentration showing 10% of inhibition.
(§4) The cross-reactivities (CRs) of benfuracarb, carbosulfan, 3-hydroxy-carbofuran, metolcarb, carbaryl, isoprocarb and aldicarb with carbofuran were assessed by ELISA and QD-LFIA. CR was calculated as CR (%) = [IC50 (carbofuran)/IC50 (analogues)] × 100%.
The microplate was coated with the coating antigens DDB-BSA (1 µg/mL), DDB-OVA (0.5 µg/mL), MDA-BSA (0.2 µg/mL) and MDA-OVA (0.1 µg/mL), and the concentration of mAb 13C8 was 0.03 µg/mL. Carbofuran standards (0, 0.05, 0.15, 0.45, 1.35 and 4.05 ng/mL) were detected to obtain a standard curve, and the IC50 was calculated. […] In the icELISA used in this study, free antigen (carbofuran) in solution competed with the coating antigen on the microplate for antibody 13C8; therefore, the IC50 value was negatively correlated with the antibody-binding ability of free antigen competing with coating antigens.
The ELISA method was developed with the antibody 13C8–antigen MDA-BSA pair. Under the optimized coating antigen concentration (0.1 μg/mL), HRP-conjugated goat anti-mouse IgG concentration (1 μg/mL), antibody concentration (0.03 μg/mL) and working buffer parameters (5 mM PBS at pH 7.4), a standard curve was obtained with the concentration of carbofuran on the abscissa and the inhibition ratio (B/B0) on the ordinate.

mAb 13C8 [2] = assay: quantum dot-based LFIA (QD-LFIA) with mAb 13C8; type: binding, BALB/c mice; details: for IC50 (QD-LFIA): optimized QD-LFIA, mAb 13C8-QD, T line antigen 30 μg/mL, given as MDA-BSA and MDA-OVA
Method: One milliliter of QDs was added to 9 mL of MES (0.054 M at pH 6.0) and centrifuged at 10,956× g for 20 min. Then, the precipitate was resuspended in 10 mL of MES (0.05 M at pH 6.0). After dispersion by ultrasonication for 2 min, EDC (20 mg) and NHS (20 mg) were added, and the reaction mixture was incubated for 30 min, followed by centrifugation at 10,956× g for 20 min. The precipitate was resuspended in 10 mL of MES (0.05 M at pH 6.0). Then, 1 mg of the mAb dissolved in 10 mL MES (0.027 M at pH 8.0) was added to the QD mixture and shaken at 25 °C and 180 rpm for 90 min. After the reaction, 5 mL of MES (0.054 M at pH 6.0 containing 1.6% BSA, w/v) was added, and the mixture was shaken at 25 °C and 180 rpm for 40 min, followed by centrifugation at 10,956× g for 20 min. The precipitate was resuspended in 10 mL of PB (0.01 M at pH 6.0, containing 5% casein, 1% glucose, 1.5% alanine and 0.05% NaN3, w/v) and dispersed by ultrasonication for 2 min.
The conjugate pad (6 mm × 300 mm) was pretreated with PBS (containing 0.5% Triton X-100, 0.5% alanine and 0.05% NaN3, w/v). Then, 1 mL of the mAb–QD conjugate was sprayed onto the pretreated conjugate pad at a flow rate of 10 μL/cm, and the pad was dried at 37 °C for 2 h. Other applied protocols were similar to those mentioned above.
as §2, §3, §4
Then, to prepare QD-LFIA test strips, DDB-BSA (40 μg/mL), DDB-OVA (50 μg/mL), MDA-BSA (35 μg/mL) and MDA-OVA (30 μg/mL) were dispensed onto the NC membrane, and antibody 13C8 was conjugated to the QDs. Carbofuran standards (0, 0.05, 0.15, 0.45, 1.35 and 4.05 ng/mL) were detected to obtain a standard curve, and the IC50 was calculated. […] In LFIA, carbofuran in solution competed with the coating antigen on the NC membrane for antibody 13C8 conjugated to the QDs.
A standard curve was developed with the inhibition ratio (B/B0) versus the logarithm of the concentration of carbofuran.

[3] = test system: mAb with the immunogen 3-succinyl-carbofuran-KLH; details: cited from earlier work
mAb 13C8 [4] = assay: ELISA reactivity of hybridoma supernatant, cell line 13C8; type: binding, BALB/c mice; details: cell line 13C8 supernatant, 50 ng/mL pesticide
Method: (§5) The desired antibodies with the highest affinity were screened by icELISA with carbofuran as a competitive compound, and hybridoma cells were cloned by the limited dilution method. Then, the selected hybridoma cells were injected into mice for ascites production. Finally, the mAbs were purified by (NH4)2SO4 with saturation of 50% and further purified by an SPA column.
as §1, §3
(§6) Then, the reactivity of the supernatant of the six cell lines to 50 ng/mL carbofuran, benfuracarb and carbosulfan was assessed by ELISA, and the results are shown in Table 1. […] Because 13C8 had the highest reactivity with carbofuran, benfuracarb and carbosulfan among the six cell lines, it was injected into mice for ascites production, and the mAbs were purified by a protein A column for further experiments.

mAb 6D6 = assay: ELISA reactivity of hybridoma supernatant, cell line 6D6; type: binding, BALB/c mice; details: cell line 6D6 supernatant, 50 ng/mL pesticide
Method: as §5, §1, §3, §6

mAb 12D6 = assay: ELISA reactivity of hybridoma supernatant, cell line 12D6; type: binding, BALB/c mice; details: cell line 12D6 supernatant, 50 ng/mL pesticide
Method: as §5, §1, §3, §6

mAb 18G3 = assay: ELISA reactivity of hybridoma supernatant, cell line 18G3; type: binding, BALB/c mice; details: cell line 18G3 supernatant, 50 ng/mL pesticide
Method: as §5, §1, §3, §6

mAb 12H5 = assay: ELISA reactivity of hybridoma supernatant, cell line 12H5; type: binding, BALB/c mice; details: cell line 12H5 supernatant, 50 ng/mL pesticide
Method: as §5, §1, §3, §6

mAb 7F9 = assay: ELISA reactivity of hybridoma supernatant, cell line 7F9; type: binding, BALB/c mice; details: cell line 7F9 supernatant, 50 ng/mL pesticide
Method: as §5, §1, §3, §6

[5] = test system: broad-specificity mAb with the immunogen BFNB-BSA; details: cited from earlier work

Row | SMILES | IC50 (ELISA) (mAb 13C8 [1]) | IC50 (QD-LFIA) (mAb 13C8 [2]) | CR(%) (ic-ELISA) [5] | IC50 (ic-ELISA) [5] | also measured
1 | CNC(=O)Oc1cccc2c1OC(C)(C)C2O (centres unmarked) [3-hydroxy-carbofuran] | 0.00025 ± 5e-05 µg/mL (≈ 0.00105 µM) | 0.00087 ± 6e-05 µg/mL (≈ 0.00367 µM) | – | – | CR(%) (ic-ELISA) [3]: 110.1%; IC50 (ic-ELISA) [3]: 0.00069 ± 8e-05 µg/mL (≈ 0.00291 µM)
2 | CNC(=O)O/N=C/C(C)(C)SC [aldicarb] | >0.02 µg/mL | >0.1 µg/mL | – | – | –
3 | CCOC(=O)CCN(SN(C)C(=O)Oc1cccc2c1OC(C)(C)C2)C(C)C [benfuracarb] | 0.00023 ± 3e-05 µg/mL (≈ 0.00056 µM) | 0.00081 ± 7e-05 µg/mL (≈ 0.00197 µM) | – | – | Reactivity of mAb (I%) (mAb 13C8 [4]): 91%; Reactivity of mAb (I%) (mAb 6D6): 53%; Reactivity of mAb (I%) (mAb 12D6): 55%; Reactivity of mAb (I%) (mAb 18G3): 76%; Reactivity of mAb (I%) (mAb 12H5): 70%; Reactivity of mAb (I%) (mAb 7F9): 68%
4 | CNC(=O)Oc1cccc2ccccc12 [carbaryl] | >0.02 µg/mL | >0.1 µg/mL | 8.5% | 0.10559 µg/mL (≈ 0.525 µM) | –
5 | CCCCN(CCCC)SN(C)C(=O)Oc1cccc2c1OC(C)(C)C2 [carbosulfan] | 0.00024 ± 4e-05 µg/mL (≈ 0.000631 µM) | 0.00084 ± 9e-05 µg/mL (≈ 0.00221 µM) | 7.7% | 0.1158 µg/mL (≈ 0.304 µM) | Reactivity of mAb (I%) (mAb 13C8 [4]): 90%; Reactivity of mAb (I%) (mAb 6D6): 61%; Reactivity of mAb (I%) (mAb 12D6): 46%; Reactivity of mAb (I%) (mAb 18G3): 71%; Reactivity of mAb (I%) (mAb 12H5): 67%; Reactivity of mAb (I%) (mAb 7F9): 65%
6 | CNC(=O)Oc1ccccc1C(C)C [isoprocarb] | >0.02 µg/mL | >0.1 µg/mL | 50.7% | 0.01768 µg/mL (≈ 0.0915 µM) | CR (%) (ELISA) (mAb 13C8 [1]; CR = IC50(carbofuran)/IC50(analogue) x 100%, optimized ELISA with mAb 13C8): <1%; CR (%) (QD-LFIA) (mAb 13C8 [2]; CR = IC50(carbofuran)/IC50(analogue) x 100%, QD-LFIA with mAb 13C8): <1%
7 | CNC(=O)Oc1cccc(C)c1 [metolcarb] | >0.02 µg/mL | >0.1 µg/mL | – | – | –
8 | CNC(=O)Oc1ccccc1OC(C)C [propoxur] | – | – | 25.8% | 0.03475 µg/mL (≈ 0.166 µM) | –
